Reference: ChEMBL document CHEMBL6182911, “From Diarylsulfides to Diarylamines: New Ebola Virus Entry Inhibitors with Improved Metabolic Stability” (J Med Chem, 2025)
The source made the active and inactive calls. The rule behind the calls is not given here.

Experiments:
[1] = system: Vesicular stomatitis virus; assay: Antiviral activity against VSV-G pseudotyped virus infected in African green monkey Vero E6 cells assessed as inhibition of viral infection at 10 uM preincubated with cells for 1 hr followed by viral infection and measured after 24 hrs by luciferase based luminometric analysis; format: functional, organism-based; details: time 25.0 hrs
[2] = Cytotoxicity against African green monkey Vero E6 cells assessed as reduction in cell viability incubated for 24 hrs by CellTiter-Glo Luminescent Cell Viability Assay; format: toxicity, cell-based, Vero C1008; details: chlorocebus sabaeus
[3] = Selectivity index, ratio of CC50 for cytotoxicity against African green monkey Vero E6 cells to EC50 for antiviral activity against VSV-G pseudotyped EBOV-GP Mayinga infected in African green monkey Vero E6 cells; format: toxicity, cell-based; details: read-out: Ratio CC50/EC50
[4] = Selectivity index, ratio of CC50 for cytotoxicity against African green monkey Vero E6 cells to EC50 for antiviral activity against replicative EBOV Mayinga variant infected in African green monkey Vero E6 cells; format: toxicity, cell-based; details: read-out: Ratio CC50/EC50
[5] = system: Ebolavirus; assay: Binding affinity to EBOV-GP assessed as appearance of STD signals of aromatic region of compound at ligand to protein concentration molar ratio of 100:1 by STD-NMR analysis
[6] = system: Ebolavirus; assay: Binding affinity to EBOV-GP assessed as appearance of STD signals of aromatic region of compound at ligand to protein concentration molar ratio of 100:1 in presence of imipramine by STD-NMR analysis
[7] = system: Ebolavirus; assay: Inhibition of cleaved EBOV-GP assessed as disruption of interaction between EBOV-GPcl and Flag-tagged human NPC1 domain C at 50 uM by ELISA
[8] = system: Ebolavirus; assay: Antiviral activity against replicative EBOV Mayinga infected in African green monkey Vero E6 cells assessed as reduction in virus titer in cell culture supernatant incubated for 3 days by immunofocus assay; format: functional, organism-based
[9] = system: Ebolavirus; assay: Antiviral activity against VSV-G pseudotyped EBOV-GP Mayinga infected in African green monkey Vero E6 cells assessed as inhibition of viral infection preincubated with cells for 1 hr followed by viral infection and measured after 24 hrs by luciferase based luminometric analysis; format: functional, organism-based; details: Orthoebolavirus, Vero C1008

| SMILES | Activity [1] | CC50 at 24 h [2] [µM] | other results |
| --- | --- | --- | --- |
| CCN(CC)CCC(=O)Nc1ccccc1Sc1cc(Cl)ccc1[N+](=O)[O-] | inactive | – | – |
| O=C(CCNCCc1ccccc1)Nc1ccccc1Sc1cc(Cl)ccc1[N+](=O)[O-] | – | 250 | – |
| O=C(CNCCC1CCN(Cc2ccccc2)CC1)Nc1ccccc1Nc1cc(Cl)ccc1[N+](=O)[O-] | inactive | – | selectivity ratio [3]: 4.1; selectivity ratio [4]: 2.3; Activity [5]: Active; Activity [6]: inactive; inhibition [7]: Active |
| O=C(CN1CCCC1)Nc1ccccc1Sc1cc(Cl)ccc1[N+](=O)[O-] | – | 250 | EC50 [8]: Not_active |
| O=C(CN1CCCCC1)Nc1ccccc1Sc1cc(Cl)ccc1[N+](=O)[O-] | – | 250 | – |
| O=C(CNCc1ccccc1)Nc1ccccc1Sc1cc(Cl)ccc1[N+](=O)[O-] | – | 250 | – |
| CCN(CC)CC(=O)NNc1ccccc1Sc1cc(Cl)ccc1[N+](=O)[O-] | – | – | EC50 [9]: 4.02 µM |
| CCN(CC)CCC(=O)Nc1ccccc1Nc1cc(Cl)ccc1[N+](=O)[O-] | inactive | – | – |
| O=C(CCN1CCCC1)Nc1ccccc1Sc1cc(Cl)ccc1[N+](=O)[O-] | inactive | – | EC50 [8]: Not_active |
| O=C(CNCCC1CCN(Cc2ccccc2)CC1)Nc1ccccc1Sc1cc(Cl)ccc1[N+](=O)[O-] | inactive | – | – |
| NC(=O)c1nc(F)c[nH]c1=O | – | > 1000 | selectivity ratio [4]: 14.9 |
| CCN(CC)CC(=O)Nc1ccccc1Sc1cc(Cl)ccc1[N+](=O)[O-] | – | 250 | – |
| O=C(CN1CCCC1)NNc1ccccc1Sc1cc(Cl)ccc1[N+](=O)[O-] | – | – | EC50 [9]: 2.9 µM |
| O=C(CCN1CCCC1)Nc1ccccc1Nc1cc(Cl)ccc1[N+](=O)[O-] | inactive | – | – |
